For data set [1], the system named is human peripheral blood mononuclear cells (PBMC). In words: PBMC cytotoxicity assay (CellTiter-Glo). The conditions noted are these: 2 days, pCC50. The format is cell-based. The procedure, abridged: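 % cytotoxicity was taken from CellTiter-Glo luminescence, using wells without cells and stimulated DMSO wells as references, and fitted by four-parameter curve to give XC50. Cells were human PBMC at 50,000 per well, activated with 100 ng/ml IFN-γ plus 50 ng/ml LPS. Incubation with 11-point, 3-fold dilution series ran for 2 days at 37 °C.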
In general terms: ATP-based viability assays read luminescence as a measure of living cells.

Data set [2] deals with indoleamine 2, 3-dioxygenase (IDO1) (Homo sapiens, UniProt P14902). The data set is described as follows: IDO1 PBMC RapidFire MS assay (kynurenine detection by mass spectrometry). Details: to induce the expression of indoleamine 2, 3-dioxygenase (IDO1); host or cells: human PBMC stimulated with IFN-gamma and LPS. Format: cell-based. The conditions noted are these: human PBMC stimulated with IFN-γ and LPS, 2 days, pIC50, read-out: PBMC PXC50 (converted). The procedure, abridged:
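Kynurenine output, read by RapidFire mass spectrometry as ratio to an internal standard, was measured after 2-day compound exposure (11-point, 3-fold dilutions) of human PBMCs induced with 100 ng/ml IFN-γ and 50 ng/ml LPS. Cell viability tracked alongside via ATP luminescence; XC50 from curve fitting.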

Where only a bound is given, the exact number is not on record here.

Chain of indoleamine 2, 3-dioxygenase (IDO1) (P14902 whole entry): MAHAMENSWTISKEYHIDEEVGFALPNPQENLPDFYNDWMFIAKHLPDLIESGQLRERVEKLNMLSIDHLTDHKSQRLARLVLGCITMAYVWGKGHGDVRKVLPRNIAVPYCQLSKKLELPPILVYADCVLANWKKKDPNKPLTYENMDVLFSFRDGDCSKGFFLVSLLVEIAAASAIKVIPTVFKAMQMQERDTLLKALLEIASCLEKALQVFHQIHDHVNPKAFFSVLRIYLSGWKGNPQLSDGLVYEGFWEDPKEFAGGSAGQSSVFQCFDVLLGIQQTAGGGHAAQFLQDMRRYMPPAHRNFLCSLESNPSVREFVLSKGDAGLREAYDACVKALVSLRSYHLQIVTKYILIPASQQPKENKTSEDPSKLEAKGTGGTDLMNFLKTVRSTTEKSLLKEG

Regarding `CC(C)CN(c1ccc([C@H](C)CC(=O)O)cc1Nc1ccc(Cl)c(C#N)n1)C1CCOCC1` [Example 30, (R)-3-(3-((5-chloro-6-cyanopyridin-2-yl)amino)-4-(isobutyl(tetrahydro-2H-pyran-4-yl)amino)phenyl)butanoic Acid], the “PBMC TOX PXC50” value in data set [1] was <5. For the same molecule, the IC50 in data set [2] is 7.94 nM.
Taken in the same sequence, the figures for `CC(C)CN(c1ccc([C@H](C)CC(=O)O)cc1Nc1nnc(C(N)=O)s1)C1CCOCC1` [example 261, (3R)-3-{3-[(5-carbamoyl-1,3,4-thiadiazol-2-yl)amino]-4-[(2-methylpropyl)(oxan-4-yl)amino]phenyl}butanoic acid] were <5 and 31.6 nM.
In the case of `CC(C)CN(c1ccc([C@H](C)CC(=O)NO)cc1Nc1nc(C(F)(F)F)ns1)C1CCOCC1` [example 233, (3R)-N-hydroxy-3-{4-[(2-methylpropyl)(oxan-4-yl)amino]-3-{[3-(trifluoromethyl)-1,2,4-thiadiazol-5-yl]amino}phenyl}butanoic amide], the “PBMC TOX PXC50” value in data set [1] was <5. Further, the IC50 in data set [2] is 20 nM.
Taken in the same sequence, the figures for `CC(C)CN(c1ccc([C@H](C)CC(=O)O)cc1Nc1n[nH]c(C#N)n1)C1CCOCC1` [example 226, (3R)-3-{3-[(5-cyano-1H-1,2,4-triazol-3-yl)amino]-4-[(2-methylpropyl)(oxan-4-yl)amino]phenyl}butanoic acid] were <5 and 126 nM.
Taken in the same sequence, the figures for `CC(C)CN(c1ccc([C@H](C)CC(=O)O)cc1Nc1ccc(Cl)c(Cl)n1)C1CCOCC1` [Example 33, (R)-3-(3-((5,6-Dichloropyridin-2-yl)amino)-4-(isobutyl(tetrahydro-2H-pyran-4-yl)amino)phenyl)butanoic Acid] were <5 and 6.31 nM.
On the same counts, the results for `CC(C)CN(c1ccc([C@H](C)CC(=O)O)cc1Nc1n[nH]c(C(N)=O)n1)C1CCOCC1` [example 227, (3R)-3-{3-[(5-carbamoyl-1H-1,2,4-triazol-3-yl)amino]-4-[(2-methylpropyl)(oxan-4-yl)amino]phenyl}butanoic acid] are <5 and 501 nM.
With `CC(C)CN(c1ccc([C@H](C)CC(=O)O)cc1Nc1nc(C(C)C)ns1)C1CCOCC1` [Example 26, (R)-3-(4-(isobutyl(tetrahydro-2H-pyran-4-yl)amino)-3-((3-isopropyl-1,2,4-thiadiazol-5-yl)amino)phenyl)butanoic Acid], the “PBMC TOX PXC50” value in data set [1] is <5. In addition, the IC50 in data set [2] is 3.16 nM.
Taken in the same sequence, the figures for `CC(C)CN(c1ccc([C@H](C)CC(=O)O)cc1Nc1ccc(C(F)(F)F)cn1)C1CCOCC1` [Example 27, (R)-3-(4-(isobutyl(tetrahydro-2H-pyran-4-yl)amino)-3-((5-(trifluoromethyl)pyridin-2-yl)amino)phenyl)butanoic Acid] were <5 and 3.98 nM.
Taken in the same sequence, the figures for `CC(C)CN(c1ccc([C@H](C)CC(=O)O)cc1Nc1nc(C(=O)NC2CC2)c[nH]1)C1CCOCC1` [example 236, (3R)-3-(3-{[4-(cyclopropylcarbamoyl)-1H-imidazol-2-yl]amino}-4-[(2-methylpropyl)(oxan-4-yl)amino]phenyl)butanoic acid] were <5 and > 10000 nM.
On the same counts, the results for `CC(C)CN(c1ccc([C@H](C)CC(=O)O)cc1Nc1cnc(Cl)cn1)C1CCOCC1` [Example 12, (R)-3-(3-((5-chloropyrazin-2-yl)amino)-4-(isobutyl(tetrahydro-2H-pyran-4-yl)amino)phenyl)butanoic Acid] are <5 and 1 nM.
Consider `CC(C)CN(c1ccc([C@H](C)CC(=O)O)cc1Nc1nc(Cl)ns1)C1CC2(CCC2)C1` [Example 98, (R)-3-(3-((3-chloro-1,2,4-thiadiazol-5-yl)amino)-4-(isobutyl(spiro[3.3]heptan-2-yl)amino)phenyl)butanoic Acid], for which the “PBMC TOX PXC50” value in data set [1] is recorded as <5. In addition, the IC50 in data set [2] is 7.94 nM.
Taken in the same sequence, the figures for `CC(C)CN(c1ccc([C@H](C)Cc2nnn[nH]2)cc1Nc1nc(Cl)ns1)C1CCOCC1` [Example 100, (R)-4-(1-(1H-tetrazol-5-yl)propan-2-yl)-N^2-(3-chloro-1,2,4-thiadiazol-5-yl)-N^1-isobutyl-N^1-(tetrahydro-2H-pyran-4-yl)benzene-1,2-diamine] were <5 and 2 nM.
Turning to `COC(=O)N1CCC(N(CC(C)C)c2ccc([C@H](C)CC(=O)O)cc2Nc2nc(C(F)(F)F)ns2)CC1` [Example 66], the “PBMC TOX PXC50” value in data set [1] turned out to be 5.2. Further, the IC50 in data set [2] is 1.58 nM.
Taken in the same sequence, the figures for `CC(C)CN(c1ccc([C@H](C)CC(=O)O)cc1Nc1ccc(C(N)=O)cn1)C1CCOCC1` [example 240, (3R)-3-{3-[(5-carbamoylpyridin-2-yl)amino]-4-[(2-methylpropyl)(oxan-4-yl)amino]phenyl}butanoic acid] were <5 and 2510 nM.
On the same counts, the results for `CC(C)CN(c1ccc([C@H](C)CC(=O)O)cc1Nc1n[nH]c(C(F)(F)F)n1)[C@H]1CC[C@H](O)CC1` (racemic) [example 219, (3RS)-3-{4-[(2-methylpropyl)[(1rs&,4rs&)-4-hydroxycyclohexyl]amino]-3-{[5-(trifluoromethyl)-1H-1,2,4-triazol-3-yl]amino}phenyl}butanoic acid] are <5 and 100 nM.
On the same counts, the results for `CNC(=O)c1nnc(Nc2cc(C(C)CC(=O)O)ccc2N(CC(C)C)C2CCCCC2)s1` (stereo not shown) [Example 79] are <5 and 5.01 nM.
Regarding `CC(C)CN(CCCCCN=[N+]=[N-])c1ccc([C@H](C)CC(=O)O)cc1Nc1nc(C(F)(F)F)ns1` [Example 94, (R)-3-(4-((5-azidopentyl) (isobutyl)amino)-3-((3-(trifluoromethyl)-1,2,4-thiadiazol-5-yl)amino)phenyl)butanoic Acid], in data set [1], the “PBMC TOX PXC50” value is given as <4.3. In addition, the IC50 in data set [2] is 1.26 nM.
On to `CC(C)CN(c1ccc([C@H](C)CC(=O)O)cc1Nc1nc(C(F)(F)F)ns1)C1CCN(C(=O)C2CC2)CC1` [Example 64, (R)-3-(4-((1-(cyclopropanecarbonyl)piperidin-4-yl) (isobutyl)amino)-3-((3-(trifluoromethyl)-1,2,4-thiadiazol-5-yl)amino)phenyl)butanoic Acid], for which, in data set [1], the “PBMC TOX PXC50” value was <5. In addition, the IC50 in data set [2] is 1 nM.
On the same counts, the results for `CC(C)CN(c1ccc([C@H](C)Cc2nnn[nH]2)cc1Nc1nc(C(F)(F)F)ns1)C1CCOCC1` [Example 99, (R)-4-(1-(1H-tetrazol-5-yl)propan-2-yl)-N^1-isobutyl-N^1-(tetrahydro-2H-pyran-4-yl)-N^2-(3-(trifluoromethyl)-1,2,4-thiadiazol-5-yl)benzene-1,2-diamine] are <5 and 1.26 nM.
On the same counts, the results for `CO[C@H]1CC[C@H](N(CC(C)C)c2ccc([C@H](C)CC(=O)O)cc2Nc2n[nH]c(C3CC3)n2)CC1` (racemic) [example 221, (3RS)-3-{3-[(5-cyclopropyl-1H-1,2,4-triazol-3-yl)amino]-4-[(2-methylpropyl)[(1rs&,4rs&)-4-methoxycyclohexyl]ami-no]phenyl}butanoic acid] are <5 and 39.8 nM.
Taken in the same sequence, the figures for `CC(C)CN(c1ccc([C@H](C)CC(=O)O)cc1Nc1cnc(Cl)nc1)C1CCOCC1` [Example 10, (R)-3-(3-((2-chloropyrimidin-5-yl)amino)-4-(isobutyl(tetrahydro-2H-pyran-4-yl)amino)phenyl)butanoic Acid] were <5 and 0.794 nM.
In the case of `CC(=O)N1CCC(N(CC(C)C)c2ccc([C@H](C)CC(=O)O)cc2Nc2nc(C(F)(F)F)ns2)CC1` [Example 70, (R)-3-(4-((1-acetylpiperidin-4-yl) (isobutyl)amino)-3-((3-(trifluoromethyl)-1,2,4-thiadiazol-5-yl)amino)phenyl)butanoic Acid], the “PBMC TOX PXC50” value in data set [1] is given as <5. In addition, the IC50 in data set [2] was 3.16 nM.
Taken in the same sequence, the figures for `CC(C)CN(c1ccc(-c2ccccc2C(=O)O)cc1Nc1nc(C(F)(F)F)ns1)C1CC2(C1)CN(C(=O)OC(C)(C)C)C2` [Example 97, 4′-((2-(tert-butoxycarbonyl)-2-azaspiro[3.3]heptan-6-yl) (isobutyl)amino)-3′-((3-(trifluoromethyl)-1,2,4-thiadiazol-5-yl)amino)-[1,1′-biphenyl]-2-carboxylic Acid] were <5 and 6.31 nM.
Taken in the same sequence, the figures for `CO[C@H]1CC[C@H](N(CC(C)C)c2ccc([C@H](C)CC(=O)O)cc2Nc2ccc(C#N)cn2)CC1` [Example 56, (R)-3-(3-((5-cyanopyridin-2-yl)amino)-4-(isobutyl((1r,4R)-4-methoxycyclohexyl)amino)phenyl)butanoic Acid] were <5 and 3.98 nM.
Taken in the same sequence, the figures for `CC(C)CN(c1cc(F)c([C@H](C)CC(=O)O)cc1Nc1ccc(Cl)cn1)C1CCOCC1` [Example 36, (R)-3-(5-((5-chloropyridin-2-yl)amino)-2-fluoro-4-(isobutyl(tetrahydro-2H-pyran-4-yl)amino)phenyl)butanoic Acid] were <5 and 0.631 nM.
Take `CC(C)CN(c1ccc([C@H](C)CC(=O)O)cc1Nc1ccc(C(N)=O)nc1)C1CCOCC1` [example 239, (3R)-3-{3-[(6-carbamoylpyridin-3-yl)amino]-4-[(2-methylpropyl)(oxan-4-yl)amino]phenyl}butanoic acid]: the “PBMC TOX PXC50” value in data set [1] is listed as <5. Moreover, the IC50 in data set [2] is 25.1 nM.

These data come from patent publication US10899754B2, “Modulators of indoleamine 2,3-dioxygenase” (GLAXOSMITHKLINE INTELLECTUAL PROPERTY DEVELOPMENT LIMITED, priority 2016, dated 2021).
